In patent US12552846B2, “Modified BCL9 mimetic peptides” (Sapience Therapeutics, Inc., priority 2019, dated 2026):
Square brackets hold non-standard residues; d marks the D form. Peptide text beside a SMILES is read from it. d1Nal = N[C@H](Cc1cccc2ccccc12)C(=O)O; d2Nal = N[C@H](Cc1ccc2ccccc2c1)C(=O)O

These compounds were tested on HL60 promyelocytic leukemia cells (assay: Cytotoxicity assay in HL60 cells (Annexin V FITC / PI flow cytometry)). Conditions: 48 hours.
Type: cell-based
Description: We examined the cytotoxicity of peptides BCL-26 and BCL-27 using an assay in HL60 promyelocytic leukemia cells. HL60 PML suspension cells were set at a density of 3.5×10^3 cells/well in 150 μL of RPMI+1.5% fetal bovine serum (FBS) in a 96 well dish. BCL-26 or BCL-27, reconstituted at a concentration of 10 mg/mL in 20 mM His, pH 7.5, was added to each well at a volume of 50 μL to a final concentration range of 0-80 μM. Cells were incubated with peptide for 48 hours at 37° C. Cell viability was quantified by flow cytometry using abcam Annexin V FITC apoptosis detection kit. Briefly, cells were washed with PBS and resuspended in 1× assay buffer containing Annexin V FITC and propidium iodide (PI). Annexin V detects apoptotic cells, and PI stains dead cells. After staining, apoptotic cells show green fluorescence, dead cells show red and green fluorescence, and live cells show little or no fluorescence. Cells were selected for analysis based on forward scatter (FSC) vs. side scatter (SSC), and analyzed by BD Accuri C6 Plus flow cytometer to detect Annexin V-FITC binding (Ex=488 nm; Em=530 nm) using FITC signal detector and PI staining by the phycoerythrnn emission signal detector. Percentage of Annexin V^low and PI^low were quantified and presented as % Viability.
We examined the cytotoxicity of additional retro inverso and mixed chirality BCL9 mimetic peptides in HL60 cells using the assay described above.

`CC(C)C[C@@H](NC(=O)[C@@H](CCC(N)=O)NC(=O)[C@@H](C)NC(=O)[C@@H](CC(C)C)NC(=O)[C@@H](CCCNC(=N)N)NC(=O)[C@@H](C)NC(=O)[C@@H](CC(C)C)NC(=O)[C@@H](CCC(N)=O)NC(=O)[C@@H](CCCNC(=N)N)NC(=O)[C@@H](C)NC(=O)[C@@H](CC(C)C)NC(=O)[C@@H](Cc1c[nH]c2ccccc12)NC(=O)[C@H](N)Cc1c[nH]c2ccccc12)C(=O)N[C@H](C)C(=O)O` [BCL-12] (H-[dW][dW][dL][dA][dR][dQ][dL][dA][dR][dL][dA][dQ][dL][dA]-OH; N-terminus and C-terminus assumed) was tested, and the cytotoxic activity was “no cytotoxic activity”.

Same assay, conditions: 48 hours, 0-80 μM, % Viability (Annexin V low, PI low)

`CC(C)C[C@@H](NC(=O)[C@@H](CCC(N)=O)NC(=O)[C@@H](C)NC(=O)[C@@H](CC(C)C)NC(=O)[C@@H](CCCNC(=N)N)NC(=O)[C@@H](C)NC(=O)[C@@H](CC(C)C)NC(=O)[C@@H](CCC(N)=O)NC(=O)[C@@H](CCCNC(=N)N)NC(=O)[C@@H](C)NC(=O)[C@@H](CC(C)C)NC(=O)[C@@H](Cc1c[nH]c2ccccc12)NC(=O)[C@H](N)Cc1c[nH]c2ccccc12)C(=O)N[C@H](C)C(=O)O` [BCL-12] (H-[dW][dW][dL][dA][dR][dQ][dL][dA][dR][dL][dA][dQ][dL][dA]-OH; N-terminus and C-terminus assumed) and `CC(C)C[C@@H](NC(=O)[C@@H](Cc1c[nH]c2ccccc12)NC(=O)[C@H](N)Cc1c[nH]c2ccccc12)C(=O)N[C@H](C)C(=O)N[C@H](CCCNC(=N)N)C(=O)N[C@H](CCC(N)=O)C(=O)N[C@H](CC(C)C)C(=O)N[C@H](CCC(=O)O)C(=O)N[C@H](CCCNC(=N)N)C(=O)N[C@H](CC(C)C)C(=O)N[C@H](C)C(=O)N[C@H](CCC(N)=O)C(=O)N[C@H](CC(C)C)C(=O)N[C@H](C)C(=O)N[C@H](CCCCN)C(=O)N[C@H](CC(C)C)C(=O)N[C@@H](C(=O)N1CCC[C@@H]1C(=O)N[C@@H](C(=O)O)C(C)C)[C@H](C)O` [BCL-76] (H-[dW][dW][dL][dA][dR][dQ][dL][dE][dR][dL][dA][dQ][dL][dA][dK][dL][dT][dP][dV]-OH; N-terminus and C-terminus assumed) cannot be ordered by EC50: over 80000 nM for the first, over 10000 nM for the second.

`CC(C)C[C@@H](NC(=O)[C@@H](Cc1c[nH]c2ccccc12)NC(=O)[C@H](N)Cc1cccc2ccccc12)C(=O)N[C@H](C)C(=O)N[C@H](CCCNC(=N)N)C(=O)N[C@H](CCC(N)=O)C(=O)N[C@H](CC(C)C)C(=O)N[C@H](C)C(=O)N[C@H](CCCNC(=N)N)C(=O)N[C@H](CC(C)C)C(=O)N[C@H](C)C(=O)N[C@H](CCC(N)=O)C(=O)N[C@H](CC(C)C)C(=O)N[C@H](C)C(=O)N[C@H](CCCCN)C(=O)N[C@H](CC(C)C)C(=O)N[C@@H](C(=O)N1CCC[C@@H]1C(=O)N[C@@H](C(=O)O)C(C)C)[C@H](C)O` [BCL-77] (H-[d1Nal][dW][dL][dA][dR][dQ][dL][dA][dR][dL][dA][dQ][dL][dA][dK][dL][dT][dP][dV]-OH; N-terminus and C-terminus assumed) and `CC(C)C[C@@H](NC(=O)[C@@H](Cc1c[nH]c2ccccc12)NC(=O)[C@H](N)Cc1ccc2ccccc2c1)C(=O)N[C@H](C)C(=O)N[C@H](CCCNC(=N)N)C(=O)N[C@H](CCC(N)=O)C(=O)N[C@H](CC(C)C)C(=O)N[C@H](C)C(=O)N[C@H](CCCNC(=N)N)C(=O)N[C@H](CC(C)C)C(=O)N[C@H](C)C(=O)N[C@H](CCC(N)=O)C(=O)N[C@H](CC(C)C)C(=O)N[C@H](C)C(=O)N[C@H](CCCCN)C(=O)N[C@H](CC(C)C)C(=O)N[C@@H](C(=O)N1CCC[C@@H]1C(=O)N[C@@H](C(=O)O)C(C)C)[C@H](C)O` [BCL-78] (H-[d2Nal][dW][dL][dA][dR][dQ][dL][dA][dR][dL][dA][dQ][dL][dA][dK][dL][dT][dP][dV]-OH; N-terminus and C-terminus assumed) cannot be ordered by EC50: under 2000 nM for the first, under 2000 nM for the second.

First: CC(C)C[C@@H](NC(=O)[C@@H](Cc1c[nH]c2ccccc12)NC(=O)[C@H](N)Cc1ccccc1)C(=O)N[C@H](C)C(=O)N[C@H](CCCNC(=N)N)C(=O)N[C@H](CCC(N)=O)C(=O)N[C@H](CC(C)C)C(=O)N[C@H](C)C(=O)N[C@H](CCCNC(=N)N)C(=O)N[C@H](CC(C)C)C(=O)N[C@H](C)C(=O)N[C@H](CCC(N)=O)C(=O)N[C@H](CC(C)C)C(=O)N[C@H](C)C(=O)N[C@H](CCCCN)C(=O)N[C@H](CC(C)C)C(=O)N[C@@H](C(=O)N1CCC[C@@H]1C(=O)N[C@@H](C(=O)O)C(C)C)[C@H](C)O [BCL-79] (H-[dF][dW][dL][dA][dR][dQ][dL][dA][dR][dL][dA][dQ][dL][dA][dK][dL][dT][dP][dV]-OH; N-terminus and C-terminus assumed)
Second: CC(C)C[C@@H](NC(=O)[C@@H](Cc1ccccc1)NC(=O)[C@H](N)Cc1c[nH]c2ccccc12)C(=O)N[C@H](C)C(=O)N[C@H](CCCNC(=N)N)C(=O)N[C@H](CCC(N)=O)C(=O)N[C@H](CC(C)C)C(=O)N[C@H](C)C(=O)N[C@H](CCCNC(=N)N)C(=O)N[C@H](CC(C)C)C(=O)N[C@H](C)C(=O)N[C@H](CCC(N)=O)C(=O)N[C@H](CC(C)C)C(=O)N[C@H](C)C(=O)N[C@H](CCCCN)C(=O)N[C@H](CC(C)C)C(=O)N[C@@H](C(=O)N1CCC[C@@H]1C(=O)N[C@@H](C(=O)O)C(C)C)[C@H](C)O [BCL-81] (H-[dW][dF][dL][dA][dR][dQ][dL][dA][dR][dL][dA][dQ][dL][dA][dK][dL][dT][dP][dV]-OH; N-terminus and C-terminus assumed)
The EC50 of the first is lower: under 2000 nM for the first, 2000 to 10000 nM for the second.

Compared with `CC(C)C[C@@H](NC(=O)[C@@H](Cc1c[nH]c2ccccc12)NC(=O)[C@H](N)Cc1c[nH]c2ccccc12)C(=O)N[C@H](C)C(=O)N[C@H](CCCNC(=N)N)C(=O)N[C@H](CCC(N)=O)C(=O)N[C@H](CC(C)C)C(=O)N[C@H](C)C(=O)N[C@H](CCCNC(=N)N)C(=O)N[C@H](CC(C)C)C(=O)N[C@H](CCCNC(=N)N)C(=O)N[C@H](CCC(N)=O)C(=O)N[C@H](CC(C)C)C(=O)N[C@H](C)C(=O)N[C@H](CCCCN)C(=O)N[C@H](CC(C)C)C(=O)N[C@@H](C(=O)N1CCC[C@@H]1C(=O)N[C@@H](C(=O)O)C(C)C)[C@H](C)O` [BCL-80] (H-[dW][dW][dL][dA][dR][dQ][dL][dA][dR][dL][dR][dQ][dL][dA][dK][dL][dT][dP][dV]-OH; N-terminus and C-terminus assumed), `CC(C)C[C@@H](NC(=O)[C@@H](CCCNC(=N)N)NC(=O)[C@@H](C)NC(=O)[C@@H](CC(C)C)NC(=O)[C@@H](CCC(N)=O)NC(=O)[C@@H](CCCNC(=N)N)NC(=O)[C@@H](CCC(=O)O)NC(=O)[C@@H](CC(C)C)NC(=O)[C@@H](Cc1c[nH]c2ccccc12)NC(=O)[C@H](N)Cc1c[nH]c2ccccc12)C(=O)N[C@H](C)C(=O)N[C@H](CCC(N)=O)C(=O)N[C@H](CC(C)C)C(=O)N[C@H](C)C(=O)N[C@H](CCCCN)C(=O)N[C@H](CC(C)C)C(=O)N[C@@H](C(=O)N1CCC[C@@H]1C(=O)N[C@@H](C(=O)O)C(C)C)[C@H](C)O` [BCL-83] (H-[dW][dW][dL][dE][dR][dQ][dL][dA][dR][dL][dA][dQ][dL][dA][dK][dL][dT][dP][dV]-OH; N-terminus and C-terminus assumed) is higher in EC50: under 2000 nM for the first, 2000 to 10000 nM for the second. The first is the more potent here.

Compound `CC(C)C[C@@H](NC(=O)[C@H](N)Cc1c[nH]c2ccccc12)C(=O)N[C@H](CC(C)C)C(=O)N[C@H](C)C(=O)N[C@H](CCCNC(=N)N)C(=O)N[C@H](CCC(N)=O)C(=O)N[C@H](CC(C)C)C(=O)N[C@H](C)C(=O)N[C@H](CCCNC(=N)N)C(=O)N[C@H](CC(C)C)C(=O)N[C@H](C)C(=O)N[C@H](CCC(N)=O)C(=O)N[C@H](CC(C)C)C(=O)N[C@H](C)C(=O)N[C@H](CCCCN)C(=O)N[C@H](CC(C)C)C(=O)N[C@@H](C(=O)N1CCC[C@@H]1C(=O)N[C@@H](C(=O)O)C(C)C)[C@H](C)O` [BCL-82] (H-[dW][dL][dL][dA][dR][dQ][dL][dA][dR][dL][dA][dQ][dL][dA][dK][dL][dT][dP][dV]-OH; N-terminus and C-terminus assumed) has an EC50 of 2000 to 10000 nM.
